“And” between values parts separate entries of the source, which are not always exact repeats. Equal entries are not always repeated.
Legend:
EV-D68 2A^pro = EV-D68 2A^pro (Enterovirus D68, UniProt A0A097BW19); assay: FRET-based enzymatic assay of EV-D68 2Apro inhibition; type: biochemical; conditions: for IC50: read-out: Enzymatic inhibitory activity IC50
Protocol: (§1) Protein expression and purification. EV-D68 2A^pro gene from strain US/KY/14-18953 was ordered from Genscript (Piscataway, NJ) in pET28b(+) vector with E. coli codon optimization. 2A^pro gene was subcloned into pE-SUMOstar vector according to the manufacturers protocol. Plasmid encoding WT-2A^pro was transformed into BL21(DE3) competent E. coli cells, and a single colony was picked and used to inoculate 10 mL of L.B. grown supplemented with 50 μg/mL kanamycin at 37° C. at 250 rpm. The 10 mL inoculant was added to 1 L of L.B. with 50 μg/mL kanamycin and grown to an OD600 of 0.8-1.0, cooled to 18° C., then induced using 0.5 mM IPTG. Induced cultures were incubated at 18° C. for an additional 24 h, then harvested and resuspended in lysis buffer (25 mM Tris (pH 7.5); 750 mM NaCl, 2 mM DTT with 0.5 mg/mL lysozyme, 0.5 mM PMSF and 0.02 mg/mL DNase I) and lysed with alternating sonication and French press cycles. The cell debris were removed by centrifugation at 12,000×g for 45 min […]. The supernatant was incubated with Ni-NTA resin for over 2 h at 4° C. on a rotator. The Ni-NTA resin was thoroughly washed with 50 mM imidazole in wash buffer (50 mM Tris (pH 7.5), 150 mM NaCl, and 2 mM DTT); for the SUMO-tagged protein, the protein was directly eluted with 300 mM imidazole; for the nontagged 2A^pro Ni-NTA resin was treated with SUMO Protease 1 to remove the SUMO tag, then 2A^pro was washed off from the column with 10 mM imidazole in wash buffer. The imidazole was removed via dialysis or 10 K molecular weight cut-off centrifugal concentrator spin column. The purity of the protein was confirmed with SDS-PAGE. The protein concentration was determined by classic BCA assay using bovine serum albumin as a standard. EV-D68 3C^pro in pET28b(+) vector was expressed as previously described^10.
(§2) Peptide synthesis. The FRET substrate of EV-D68 2A^pro, Dabcyl-KIRIVNT/GPGFGGE-Edans, was synthesized using the Fmoc solid phase synthesis strategy.
(§3) Enzymatic assays. The reaction buffer contains 50 mM Tris (pH7.0), 150 mM NaCl, 10% Glycerol, and 2 mM DTT, and the reaction was carried out at 30° C. in Cytation 5 imaging reader (Fisher Scientific) with EX360/40-EM460/40 filter. Reactions were monitored every 90 sec. […] The reaction was initiated by adding 20 μM of FRET substrate, and the reaction was monitored for 2 hours and initial velocity was calculated for the first 30 minutes via linear regression.

EV-D68 US/MO/14-18947 [1] = assay: CPE assay (neutral red) with EV-D68 US/MO/14-18947 in R.D. cells; type: cell-based, Enterovirus D68
Protocol: (§4) Cell lines and viruses. Human rhabdomyosarcoma (R.D., ATCC, CCL-136) cells were maintained at 37° C. in a 5% CO2 atmosphere and cultured in Dulbecco's modified Eagle's medium (DMEM) supplemented with 10% fetal bovine serum (FBS) and 1% penicillin-streptomycin antibiotics. The following reagents were obtained through BEI Resources, NIAID, NIH: Human Enterovirus D68, US/MO/14-18949, NR-49130; Enterovirus D68, US/MO/14-18947, NR-49129; Enterovirus D68, US/IL/14-18952, NR-49131; Enterovirus D68, US/KY/14-18953, NR-49132; Enterovirus D68, US/IL/14-18956, NR-49133.
(§5) Antiviral assays. Cells for antiviral assays were seeded and grown overnight at 37° C. in a 5% CO2 atmosphere for ˜90% confluency the next day. For all infections, cells were washed with PBS containing magnesium and calcium and infected with virus diluted in DMEM with 2% FBS and 30 mM MgCl2. Viruses were incubated for at least 1 h at 33° C. in a 5% CO2 atmosphere, followed by the addition of compound as well as 1% penicillin-streptomycin. For CC50 measurements, the experiment was performed similarly but excluded viral infection. For cytopathic effect (CPE) assays, cells were stained with 66 µg/mL neutral red for 2 h and neutral red uptake was measured at absorbance 540 nm using a Multiskan FC Microplate Photometer (ThermoFisher Scientific). The EC50 and CC50 values were calculated from best-fit dose response curves using GraphPad Prism. For plaque reduction assays, an 1.2% avicel microcrystalline cellulose (FMC BioPolymer, Philadelphia, PA) overlay was used and cells were stained after 3 days as previously described^26.

EV-D68 US/MO/14-18947 [2] = assay: Secondary plaque reduction assay with EV-D68 US/MO/14-18947; type: cell-based, Enterovirus D68
Protocol: as §4
as §5, with “For CC50 measurements, the experiment was performed similarly but excluded viral infection.” left out, “For plaque reduction assays, an 1.2% avicel microcrystalline cellulose (FMC BioPolymer, Philadelphia, PA) overlay was used and cells were stained after 3 days as previously described^26.” left out

R.D. cells = assay: Cytotoxicity by neutral red uptake in R.D. cells, no viral infection; type: cell-based, Human
Protocol: as §4, §5

[3] = molecular target: T1, EV-D68 2A^pro (WT-2A^pro, strain US/KY/14-18953, expressed in E. coli BL21(DE3) from pE-SUMOstar vector) (enterovirus D68, UniProt A0A097BW19); assay: FRET-based enzymatic assay of EV-D68 2A^pro inhibition (FRET substrate Dabcyl-KIRIVNT/GPGFGGE-Edans); type: biochemical
T1 construct: E. coli-codon-optimised gene, pE-SUMOstar, His-SUMO tag (removed with SUMO protease for nontagged form), E. coli BL21(DE3), Ni-NTA; 7JRE is the C107A mutant
Protocol: (§6) FIG. 4. […] Key structural variations compared to telaprevir were highlighted in red. Enzymatic inhibitory activity IC50 value was determined in the FRET-based assay. Antiviral EC50 value was determined in the CPE assay with EV-D68 US/MO/14-18947 in R.D. cells. Cytotoxicity CC50 value was determined using the neutral red uptake method in R.D. cells. The results are the mean±standard deviation of two independent experiments with three repeats in each experiment.
as §6, with “5.” for “4.”, “Jun8861” for “telaprevir”
as §1, §2, §3

[4] = Cytotoxicity by neutral red uptake in R.D. cells, no viral infection; type: cell-based, Human; conditions: human, R.D. (rhabdomyosarcoma, ATCC CCL-136) cells, uninfected
Protocol: as §4, §5

[5] = system: EV-D68 US/KY/14-18953 (clade D); assay: Broad-spectrum antiviral activity (Table 1), US/KY/14-18953; type: cell-based, Enterovirus D68; conditions: Enterovirus D, EVD68
Protocol: as §4
as §5, with “For CC50 measurements, the experiment was performed similarly but excluded viral infection.” left out, “For plaque reduction assays, an 1.2% avicel microcrystalline cellulose (FMC BioPolymer, Philadelphia, PA) overlay was used and cells were stained after 3 days as previously described^26.” left out

[6] = system: EV-D68 US/IL/14-18952 (clade B2); assay: Broad-spectrum antiviral activity (Table 1), US/IL/14-18952; type: cell-based, Enterovirus D68; conditions: Enterovirus D, EVD68
Protocol: as §4
as §5, with “For CC50 measurements, the experiment was performed similarly but excluded viral infection.” left out, “For plaque reduction assays, an 1.2% avicel microcrystalline cellulose (FMC BioPolymer, Philadelphia, PA) overlay was used and cells were stained after 3 days as previously described^26.” left out

[7] = CPE assay, EV-D68 US/MO/14-18947 in R.D. cells
[8] = Enterovirus D, EVD68, RD, read-out: Antiviral EC50, CPE assay, EV-D68 US/MO/14-18947 in R.D. cells

| Structure (SMILES) | enzymatic inhibition, in words, relative to the named comparator (EV-D68 2A^pro) | antiviral activity, in words, relative to the named comparator (EV-D68 US/MO/14-18947 [1]; [7]) | IC50 (EV-D68 2A^pro) | EC50 (EV-D68 US/MO/14-18947 [1]; [8]) [nM] | IC50 [3] [nM] | further results |
| --- | --- | --- | --- | --- | --- | --- |
| CCC(C)[C@H](NC(=O)[C@@H]1[C@H]2CCC[C@H]2CN1C(=O)[C@@H](NC(=O)CC12CC3CC(CC(C3)C1)C2)C(C)(C)C)C(=O)C(=O)NC1CC1 (stereo partly drawn) [Jun11756, (1S,3aR,6aS)-2-((S)-2-(2-((3S,5S,7S)-adamantan-1-yl)acetamido)-3,3-dimethylbutanoyl)-N-((3S,4S)-1-(cyclopropylamino)-4-methyl-1,2-dioxohexan-3-yl)octahydrocyclopenta[c]pyrrole-1-carboxamide] | comparable enzymatic inhibition and antiviral activity as Jun8861 | comparable enzymatic inhibition and antiviral activity as Jun8861 |  |  |  | EC50 (EV-D68 US/MO/14-18947 [2]): 13.5 nM |
| CCC[C@H](NC(=O)[C@@H]1[C@H]2CCC[C@H]2CN1C(=O)[C@@H](NC(=O)CC12CC3CC(CC(C3)C1)C2)C(C)(C)C)C(=O)C(=O)NC1CC1 [Jun8861] |  |  | 80 to 140 nM and 80 nM | 160 to 750 |  | CC50 (R.D. cells): 36200 nM; EC50 (EV-D68 US/MO/14-18947 [1]; read-out: Antiviral EC50, CPE assay, EV-D68 US/MO/14-18947 in R.D. cells): 160 nM |
| CCC[C@H](NC(=O)[C@@H]1[C@H]2CCC[C@H]2CN1C(=O)[C@@H](NC(=O)CC1CCCCC1)C(C)(C)C)C(=O)C(=O)NC1CC1 [Jun8814, (1S,3aR,6aS)-2-((S)-2-(2-cyclohexylacetamido)-3,3-dimethylbutanoyl)-N—((S)-1-(cyclopropylamino)-1,2-dioxohexan-3-yl)octahydrocyclopenta[c]pyrrole-1-carboxamide] |  |  | 80 to 140 nM | 160 to 750 | 90 ± 10 |  |
| CCC[C@H](NC(=O)[C@@H]1[C@H]2CCC[C@H]2CN1C(=O)[C@@H](NC(=O)C=Cc1ccccc1)C(C)(C)C)C(=O)C(=O)NC1CC1 [Jun8813, (1S,3aR,6aS)-2-((S)-2-cinnamamido-3,3-dimethylbutanoyl)-N—((S)-1-(cyclopropylamino)-1,2-dioxohexan-3-yl)octahydrocyclopenta[c]pyrrole-1-carboxamide] | reduced enzymatic inhibition and antiviral activity compared to telaprevir | reduced enzymatic inhibition and antiviral activity compared to telaprevir |  |  | 760 ± 320 |  |
| CCC[C@H](NC(=O)[C@@H]1[C@H]2CCC[C@H]2CN1C(=O)[C@@H](NC(=O)CC1CCC(F)(F)CC1)C(C)(C)C)C(=O)C(=O)NC1CC1 [Jun975, (1S,3aR,6aS)—N—((S)-1-(cyclopropylamino)-1,2-dioxohexan-3-yl)-2-((S)-2-(2-(4,4-difluorocyclohexyl)acetamido)-3,3-dimethylbutanoyl)octahydrocyclopenta[c]pyrrole-1-carboxamide] |  |  | 80 to 140 nM | 160 to 750 | 140 ± 10 |  |
| CC(C)(C)C(NC(=O)CC12CC3CC(CC(C3)C1)C2)C(=O)N1CC2CCCC2C1C(=O)NC(Cc1ccccc1)C(=O)C(=O)NC1CC1 [Jun11385, (1S,3aR,6aS)-2-((S)-2-(2-((3S,5S,7S)-adamantan-1-yl)acetamido)-3,3-dimethylbutanoyl)-N—((S)-4-(cyclopropylamino)-3,4-dioxo-1-phenylbutan-2-yl)octahydrocyclopenta[c]pyrrole-1-carboxamide] |  |  |  |  |  | CC50 [4]: 17400 nM |
| CC(C)(C)[C@H](NC(=O)CC12CC3CC(CC(C3)C1)C2)C(=O)N1C[C@@H]2CCC[C@@H]2[C@H]1C(=O)N[C@H](C(=O)C(=O)NC1CC1)C1CCCC1 [Jun11808, (1S,3aR,6aS)-2-((S)-2-(2-((3S,5S,7S)-adamantan-1-yl)acetamido)-3,3-dimethylbutanoyl)-N—((S)-1-cyclopentyl-3-(cyclopropylamino)-2,3-dioxopropyl)octahydrocyclopenta[c]pyrrole-1-carboxamide] | comparable enzymatic inhibition and antiviral activity as Jun8861 | comparable enzymatic inhibition and antiviral activity as Jun8861 |  |  | 200 ± 70 |  |
| CCC[C@H](NC(=O)[C@@H]1[C@H]2CCC[C@H]2CN1C(=O)[C@@H](NC(=O)[C@@H](NC(=O)c1cnccn1)C1CCCCC1)C(C)(C)C)C(=O)C(=O)NC1CC1 [Telaprevir, reference compound] |  |  |  |  |  | CC50 (R.D. cells): 83200 nM; EC50 [5]: 209 ± 37.1 nM; EC50 [6]: 828 ± 107 nM |
| CCC[C@H](NC(=O)[C@@H]1[C@H]2CCC[C@H]2CN1C(=O)[C@@H](NC(=O)OCc1ccccc1)C(C)(C)C)C(=O)C(=O)NC1CC1 [Jun7426, Benzyl ((S)-1-((1S,3aR,6aS)-1-(((S)-1-(cyclopropylamino)-1,2-dioxohexan-3-yl)carbamoyl)hexahydrocyclopenta[c]pyrrol-2(1H)-yl)-3,3-dimethyl-1-oxobutan-2-yl)carbamate] | reduced enzymatic inhibition and antiviral activity compared to telaprevir | reduced enzymatic inhibition and antiviral activity compared to telaprevir |  |  | 760 ± 100 |  |
| CCC[C@H](NC(=O)[C@@H]1[C@H]2CCC[C@H]2CN1C(=O)[C@@H](NC(=O)Cc1ccccc1)C(C)(C)C)C(=O)C(=O)NC1CC1 [Jun8681, (1S,3aR,6aS)—N—((S)-1-(cyclopropylamino)-1,2-dioxohexan-3-yl)-2-((S)-3,3-dimethyl-2-(2-phenylacetamido)butanoyl)octahydrocyclopenta[c]pyrrole-1-carboxamide] | reduced enzymatic inhibition and antiviral activity compared to telaprevir | reduced enzymatic inhibition and antiviral activity compared to telaprevir |  |  | 250 ± 20 |  |

From US20250051283A1, “THERAPEUTIC COMPOUNDS AND METHODS” (priority 2023, published 2025)
